From ChEMBL document CHEMBL3507680, “University of Dundee, Gates Library screen for HepG2 cell viability”

assay: Human HepG2 cell viability assay in 384 well format; type: toxicity, cell-based; set-up: dose 125 nL, time 70.5 hour; cytotoxicity at 70.5 h: concentration not given beside the values; settings: HepG2 cells, read-out: Inhibition

| SMILES | cytotoxicity at 70.5 h |
| --- | --- |
| CC(=O)Nc1nc(CN2CCCC2c2cnn(C)c2)cs1 (configuration not stated) | 31.4% |
| O=C(COC1CCCCC1)NS(=O)(=O)c1ccc2c(c1)OCCCO2 | 13.6% |
| CS(=O)(=O)CCCSCc1ccc(Br)c(F)c1 | -1.93% |
| COc1ccc(N2CCN(C(=O)Cn3nc(C)c(Cl)c3C)CC2)cc1 | 4.1% |
| CN(C)C(=O)c1c[nH]nc1C1CCN(S(=O)(=O)c2ccc(Cl)cc2)CC1 | 17.9% |
| CNC(=O)C1Cc2ccccc2CN1CCc1cccs1 (configuration not stated) | -8.64% |
| Cc1cc(C)c(CNC(=O)N2CCN(c3nccs3)CC2)c(=O)[nH]1 | 14.3% |
| COc1ccc(NC(=O)CCC2CCCN(S(=O)(=O)C3CC3)C2)cc1Cl (configuration not stated) | 5.12% |
| Cc1cn2c(n1)CCC(NS(=O)(=O)c1cc(C)sc1C)C2 (configuration not stated) | -3.85% |
| CC(C)CCNC(=O)c1ccc2c(=O)n(-c3ccccc3)cnc2c1 | -25.3% |
| CNC(=O)Cc1cc2nccc(-c3c(OC)cccc3OC)n2n1 | -7.19% |
| CCN(CC)C(=O)c1ccc(-n2ncc(C#N)c2N)cc1 | 12.9% |
| O=C1CCCN1CCc1nc(-c2ccsc2)no1 | -14.2% |
| COC(=O)CCCn1ccnc1-c1ccc(OC)c(F)c1F | 3.06% |
| COCCc1noc(CN2CCOC(CN(C)C)C2)n1 (configuration not stated) | -8.08% |
| O=C(C(CNCc1cccs1)c1ccccc1)N1CCOCC1 (configuration not stated) | 7.5% |
| Cc1ccc(C(=O)NCC2CCN(Cc3ccccc3C#N)C2)cn1 (configuration not stated) | -5.59% |
| Cn1ccnc1COc1ccc(CSc2nnnn2C2CC2)cc1 | 6.53% |
| CCN1CC2(CC1=O)CN(C(C)=O)CCN(C(=O)c1ccco1)C2 (configuration not stated) | -9.45% |

| SMILES | cytotoxicity at 70.5 h |
| --- | --- |
| O=C(N[C@@H]1CCN(C(=O)c2cc[nH]c2)C[C@H]1O)c1ccccn1 | -0.892% |
| Cc1nccc(-c2ccccc2)c1C(=O)N1CC[C@](C)(O)[C@H](C)C1 | 13.7% |
| CN(CCCn1cnc2c(N)ncnc21)Cc1ccccc1 | -4.43% |
| O=C(NCC1CC1)c1cc(Br)cnc1N1CCCCC1 | -1.59% |
| Cc1cc(C)c2nc(CNCCNS(C)(=O)=O)cc(O)c2c1 | -2.21% |
| CN(Cc1cccs1)C(=O)CN1C(=O)c2cc(Cl)c(Cl)cc2C1=O | -13.1% |
| Cc1ccc(C(=O)N2CCCC(c3cc(C(F)(F)F)[nH]n3)C2)o1 (configuration not stated) | -5.23% |
| Cc1ccoc1C(=O)N1CC(C(=O)N2CCOCC2)C2(CCOCC2)C1 (configuration not stated) | 15.4% |
| Cc1nnc(CNC(=O)CC2CCc3ccccc32)o1 (configuration not stated) | 25.8% |
| CN(Cc1cccc(F)c1)C(=O)c1cc2c([nH]c1=O)CCCC2=O | 2.65% |
| O=C1COC2(COCCN(Cc3cccnc3)C2)CN1c1ccccc1 (configuration not stated) | -0.932% |
| Cc1ncc2c(n1)CN(Cc1nc3c(F)cccc3[nH]1)CC2 | -2.01% |
| CCCS(=O)(=O)N1CCC2(CC(C(=O)NCc3cccnc3)=NO2)C1 (configuration not stated) | -10.3% |
| Cn1cc(-c2cnc3n2CCC32CCN(S(=O)(=O)C3CC3)CC2)cn1 | -9.03% |
| Cc1cc(CN(Cc2cccs2)CC2CCCO2)on1 (configuration not stated) | 20.8% |
| O=C(C1CCCC1)N1CCOC(c2nc(-c3ncccn3)no2)C1 (configuration not stated) | -4.9% |
| COCC(O)CN(C)c1ccnc2cc(Br)ccc12 (configuration not stated) | -6.19% |
| Cc1nc(CCN2CCCCC2)n(-c2ccc(F)cc2)n1 | 16.5% |
| CC(O)c1cn(C2CCN(C(=O)C3(C)CCN(C)CC3)CC2)nn1 (configuration not stated) | -10.9% |

| SMILES | cytotoxicity at 70.5 h |
| --- | --- |
| CCN(CC)CCNc1ncc(-c2cc(C)no2)c(-c2ccoc2C)n1 | -10.5% |
| Nc1c(C(=O)C2CCCN(C(=O)C3CC3)C2)cnn1-c1ccc(F)cc1 (configuration not stated) | -2.33% |
| Cc1cc(C)n(CCCNC(=O)C(C)NC(=O)CC2CCCCC2)n1 (configuration not stated) | -5.96% |
| O=C(NCCn1ccnc1)NCC(c1ccco1)N1CCCC1 (configuration not stated) | 9.47% |
| CC(C1CCN(Cc2ccc(N(C)C)nc2)CC1)N1CCOCC1 (configuration not stated) | 8.61% |
| COc1cc(CNc2ccc(C)c(Cl)c2)ccc1OCC(N)=O | -11.9% |
| Cn1ccnc1-c1cn(Cc2cn3c(n2)SCC3)nn1 | -5.95% |
| CCn1cc(S(=O)(=O)N2CCCCCC2c2cc(C)on2)cn1 (configuration not stated) | 2.09% |
| CCc1noc(CN2CCN(Cc3cccs3)CC2)n1 | -10% |
| Cn1c(C(=O)NS(C)(=O)=O)ccc1-c1ccccc1 | -6.29% |
| O=C(CSc1ccc(F)c(F)c1)NS(=O)(=O)c1ccc2c(c1)OCCO2 | -14% |
| CCC[C@H]1CN(S(=O)(=O)N(C)Cc2ccccc2)C[C@@H]1N | 1.2% |
| Cn1ncc2c(=O)[nH]c(CN3CCCC3Cc3ccc(F)cc3)nc21 (configuration not stated) | 1.17% |
| Cc1cnn(CCNCc2c(C)nn(CCO)c2C)c1 | 2.83% |
| CN(C(=O)CNc1ccc(C#N)cc1)C1CCCCC1 | -3.87% |
| CC(C)(C)C(=O)NCCC(=O)NS(=O)(=O)c1cccc(C#N)c1 | 15.8% |
| O=C(CN1C(=O)CC2(CCCC2)C1=O)NCCc1nccs1 | -14.1% |
| CCC1CN(Cc2cccc(C(=O)N(C)C)c2)CCN1CCOC (configuration not stated) | -8.03% |
| c1cc(-c2noc([C@@H]3CCCN3C3CCC3)n2)cc(N2CCCC2)n1 | -6.56% |
